Source: US7495004B2, “Purine derivatives as liver X receptor agonists” (Glaxo Group Limited, priority 2002, dated 2009)

Key:
[1] = molecular target: T1, human LXRβ ligand binding domain (Homo sapiens, UniProt P55055); test: Assay for LXRβ activity (HTRF, SRC-1 peptide recruitment); format: biochemical; details: 1 μM; over a background reading of 10000 fluorescence units
T1 construct: made in house; host or cells: E. coli BL21 (DE3), vector pRSETa
T1 sequence (P55055 184-460 limits assumed): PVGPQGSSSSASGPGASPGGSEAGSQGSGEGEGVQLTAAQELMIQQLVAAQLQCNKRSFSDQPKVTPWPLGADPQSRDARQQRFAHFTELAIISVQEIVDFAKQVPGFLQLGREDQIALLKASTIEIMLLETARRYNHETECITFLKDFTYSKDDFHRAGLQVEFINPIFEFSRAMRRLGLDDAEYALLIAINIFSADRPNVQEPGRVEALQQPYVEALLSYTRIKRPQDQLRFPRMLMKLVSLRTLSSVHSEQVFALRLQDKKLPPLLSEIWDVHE
T1 sequence (Q15788 676-700 partner limits assumed): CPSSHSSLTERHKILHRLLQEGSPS
Experimental: A modified polyhistidine tag (MKKGHHHHHHG) (SEQ ID No. 1) was fused in frame to the human LXRβ ligand binding domain (amino acids 185-461 of Genbank accession number U07132) and subeloned into the expression vector pRSETa (Invitrogen) under the control of an IPTG inducible T7 promoter. The human LXRβ ligand binding domain was expressed in E. coli strain BL21 (DE3). Ten-liter fermentation batches were grown in Rich PO4 media with 0.1 mg/mL Ampicillin at 25° C. for 12 hours, cooled to 9° C. and held at that temperature for 36 hours to a density of OD600=14. At this cell density, 0.25 mM IPTG was added and induction proceeded for 24 hours at 9° C., to a final OD600=16. Cells were harvested by centrifugation (20 minutes, 3500 g, 4° C.), and concentrated cell slurries were stored in PBS at −80° C.
Typically 25-50 g of cell paste is resuspended in 250-500 mL TBS, pH 8.0 (25 mM Tris, 150 mM NaCl). Cells are lysed by passing 3 times through an APV Rannie MINI-lab homogenizer, and cell debris is removed by centrifugation (30 minutes, 20,000 g, 4° C.). […] After washing to baseline absorbance with equilibration buffer, the column is washed with approximately one column volume of TBS pH […] containing 95 mM imidazole. […] After washing to baseline absorbance with the dilution buffer the protein is eluted with a gradient from 50-500 mM NaCl. […]

[2] = molecular target: T2, LXRα ligand binding domain (Homo sapiens, UniProt Q13133); test: Assay for LXRα activity (HTRF, SRC-1 peptide recruitment); format: biochemical; details: 1 μM; over a background reading of 10000 fluorescence units
T2 construct: His tag; made in house
T2 sequence (Q13133 183-447): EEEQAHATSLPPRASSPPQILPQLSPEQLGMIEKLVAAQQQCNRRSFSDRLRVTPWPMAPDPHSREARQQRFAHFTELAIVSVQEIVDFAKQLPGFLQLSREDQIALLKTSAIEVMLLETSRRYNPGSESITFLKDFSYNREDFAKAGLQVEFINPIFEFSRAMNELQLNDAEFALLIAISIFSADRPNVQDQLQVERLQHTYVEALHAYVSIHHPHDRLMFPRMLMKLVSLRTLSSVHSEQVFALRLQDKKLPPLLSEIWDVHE
T2 sequence (Q15788 676-700 partner): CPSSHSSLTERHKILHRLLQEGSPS
Experimental: The assay for LXRα was run according to the procedures of Example 1, above using his-tagged LXRα ligand binding domain (amino acids 183-447 of Genbank accession number U22662, with the 14th amino acid corrected to A from R). Percentage control is relative to 24(S),25-epoxycholesterol.
In this assay 1 μM 24(S),25-epoxycholesterol gave a reading of 20000 fluorescence units over a background reading of 10000 fluorescence units.

## C[C@H](CC[C@@H]1OC1(C)C)[C@H]1CC[C@H]2[C@@H]3CC=C4C[C@@H](O)CC[C@]4(C)[C@H]3CC[C@]12C [24(S),25-epoxycholesterol]
[1]
  reading in LXRβ assay: 20000 fluorescence units
[2]
  reading in LXRα assay: 20000 fluorescence units
